Measurements: patent publication US20190230932A1, “Synergistic Combinations Of Monochloramine And Organic Acid, And Methods Of Using The Same For Microbial Control” (Buckman Laboratories International, Inc., priority 2018, published 2019)

Legend:
[1] = system: Pseudomonas bacterial cells; assay: Checkerboard of monochloramine and citric acid, bacterial growth in corn mash nutrient broth, 24-well plate (Example 1); on Bacterial growth at 12 hr.: key: −−−: No further growth observed; +++: Growth observed; type: cell-based; set-up: Bacterial growth at 12 hr. / Bacterial growth at 14 hr.: key: −−−: No further growth observed; +++: Growth observed; conditions: for Bacterial growth at 12 hr. / Bacterial growth at 14 hr.: 37° C., 600 nm
Protocol: Laboratory experiments were performed to study the microbicidal efficacy of a combination of monochloramine with citric acid.
Pseudomonas bacterial cells were grown in nutrient broth media. The nutrient broth media comprised corn mash (35 wt %) and water. Appropriate amount of culture cells, monochloramine and/or citric acid were transferred into 24-well plate and incubated at 37° C. The 24-well plate layout held samples which contained monochloramine added in concentrations (ppm) of 0.00, 12.50, 50.00 and 100.00 in different rows of well samples, […], in different columns of well samples, in a checkerboard pattern, such as shown in Tables 1 and 2. Bacterial growth was monitored for each sample at 12 hours and 14 hours. Measurement was qualitative based upon measurement in a plate reader. A UV-VIS spectrophotometer was used at measurement wavelength 600 nm.

[2] = system: Pseudomonas bacterial cells; assay: Checkerboard of monochloramine and citric acid, OD 600 nm growth curves over 48 hours (Example 2, FIGS. 2-5); type: cell-based
Protocol: In this study, Pseudomonas bacterial cells were grown in nutrient broth media. The nutrient broth media comprised corn mash (35 wt %) and water. Appropriate amount of culture cells, monochloramine and/or citric acid were transferred into 24-well plate and incubated at 37° C. for 48 hrs. in a plate reader. The 24-well plate layout held samples which contained monochloramine added in concentrations (ppm) of 0, 12.5, 50 and 100 ppm in different rows of well samples, and citric acid added in concentrations (ppm) of 0, 500, 3,000, 7,000, 10,000, and 20,000 in different columns of well samples, in a checkerboard pattern. Bacterial growth was monitored for each sample using a UV-VIS spectrophotometer to measure optical density (OD) (at measurement wavelength 600 nm) for the samples for 48 hours. The growth curves from the data are plotted in FIGS. 2-5.

With `O=C(O)CC(O)(CC(=O)O)C(=O)O` [Citric acid (CA), citric acid] the “inhibition of bacterial growth” value ([1]; 10,000 ppm citric acid added individually (no MCA)) was “not inhibitory to bacterial growth”, the “Bacterial growth at 12 hr.” value ([1]; MCA 0 ppm, CA 500 ppm) was “+++” and the “Bacterial growth at 14 hr.” value ([1]; MCA 0 ppm, CA 500 ppm) was “+++”. The “Bacterial growth at 12 hr.” value ([1]; MCA 0 ppm, CA 1000 ppm) was “+++”, the “Bacterial growth at 14 hr.” value ([1]; MCA 0 ppm, CA 1000 ppm) was “+++” and the “Bacterial growth at 12 hr.” value ([1]; MCA 0 ppm, CA 3000 ppm) was “+++”. For the same compound, the “Bacterial growth at 14 hr.” value ([1]; MCA 0 ppm, CA 3000 ppm) was “+++”, the “Bacterial growth at 12 hr.” value ([1]; MCA 0 ppm, CA 7000 ppm) was “+++” and the “Bacterial growth at 14 hr.” value ([1]; MCA 0 ppm, CA 7000 ppm) was “+++”. The “Bacterial growth at 12 hr.” value ([1]; MCA 0 ppm, CA 10000 ppm) was “+++”, the “Bacterial growth at 14 hr.” value ([1]; MCA 0 ppm, CA 10000 ppm) was “+++” and the “control of bacteria growth (OD 600 nm growth curve)” value (from here on “control of bacteria growth”) ([2]; citric acid alone, 500 to 20,000 ppm, no MCA, FIG. 2) was “not all of the evaluated citric acid concentrations controlled bacteria growth”.
With `NCl` [Oxamine (MCA), monochloramine] the “inhibition of bacterial growth” value ([1]; 50 ppm monochloramine added individually) was “not inhibitory to bacterial growth”, the “control of bacterial growth” value ([1]; 100 ppm MCA alone) was “sufficient to control” and the “Bacterial growth at 12 hr.” value ([1]; MCA 12.5 ppm, CA 0 ppm) was “+++”. The “Bacterial growth at 14 hr.” value ([1]; MCA 12.5 ppm, CA 0 ppm) was “+++”, the “Bacterial growth at 12 hr.” value ([1]; MCA 50 ppm, CA 0 ppm) was “+++” and the “Bacterial growth at 14 hr.” value ([1]; MCA 50 ppm, CA 0 ppm) was “+++”. For the same compound, the “control of bacteria growth” value ([2]; 12.5 ppm monochloramine alone, FIG. 3) was “no control of bacteria growth”, the “control of bacteria growth” value ([2]; 50 ppm monochloramine alone, FIG. 4) was “cells growth was delayed” and the “control of bacteria growth” value ([2]; 100 ppm monochloramine without citric acid, FIG. 5) was “total inhibition of bacteria growth”.
